Test results taken from patent US9169315B2, “Heparin cofactor II fragments with anti-inflammatory and anti-coagulant activity” (XIMMUNE AB, priority 2009, dated 2015).
Entries after “also recorded” stand apart in the source; their conditions may differ. No end group written: not given here.

How the values were obtained:
S. pyogenes = type: cell-based
Procedure: MIC assay was carried out by a microtiter broth dilution method as previously described in the NCSLA guidelines (Wiegand, I., Hilpert, K. & Hancock, R. E. Agar and broth dilution methods to determine the minimal inhibitory concentration (MIC) of antimicrobial substances. Nat Protoc 3, 163-175 (2008)). In brief, fresh overnight colonies were suspended to a turbidity of 0.5 units and further diluted in Mueller-Hinton broth (Becton Dickinson). For determination of MIC, peptides were dissolved in water at concentration 10 times higher than the required range by serial dilutions from a stock solution. Ten μl of each concentration was added to each corresponding well of a 96-well microtiter plate (polypropylene, Costar Corp.) and 90 μl of bacteria (1×10^5) in MH medium added. The plate was incubated at 37° C. for 16-18 h. MIC was taken as the lowest concentration where no visual growth of bacteria was detected.

[1] = test system: intrinsic pathway of coagulation; assay: Activated partial thromboplastin time (aPTT); details: normal human plasma
Procedure: All clotting times were measured using an Amelung coagulometer. Activated partial thromboplastin time (aPTT) was measured by incubating the peptides diluted in sterile water at the indicated concentrations, with 100 μL citrated human plasma for 1 minute followed by the addition of 100 μL aPTT reagent (aPTT Automate, Diagnostica Stago) for 60 seconds at 37° C. Clotting was initiated by the addition of 100 μL of a 25-mM CaCl2 solution. In the prothombrin time assay (PT), clotting was initiated by the addition of 100 μL Thrombomax with calcium (PT reagent; Sigma-Aldrich). For measuring the thrombin clotting time (TCT), clotting was initiated by the addition of 100 μL Accuclot thrombin time reagent (TCT reagent; Sigma-Aldrich).
All clotting times were analyzed using a coagulometer (Amelung, Lemgo, Germany). The prothrombin time (PT) and the Thrombin clotting time (TCT) were measured as followed: Hundred microliter of fresh human citrate plasma together with indicated concentrations of NLF20 were pre-warmed for 60 sec at 37° C. before clot formation was initiated by adding 100 μl a clotting reagent. (PT-thromboplastin reagent (Trinity Biotech), TCT: Thrombin reagent (Technoclone)). To record the activated partial thromboplastin time (aPTT), 100 μl of a kaolin-containing solution (Technoclone) was add to the plasma-peptide mix and incubated for 200 sec before clot formation was initiated by adding 100 μl of 30 mM fresh CaCl2 solution.

P. aeruginosa 15159 = assay: P. aeruginosa infection model (sepsis); type: in vivo, mice
Procedure: Mice were inoculated with P. aeruginosa and KYE28 (0.5 mg) was administrated sc 1 h after infection. (A) Bacterial counts in the indicated organs were analyzed after a time period of 4, 8, and 12 h. (B) In parallel, the indicated cytokines were analyzed in blood.
(A) Bacterial counts in the indicated organs were analyzed after a time period of 12 h. (B) Effects on platelets, lymphocytes, monocytes and neutrohils are shown. (C) In parallel, the indicated cytokines were analyzed in blood. […]
(A) P. aeruginosa 15159 bacteria (in PBS, ˜2×10^4 or 2×10^8 cfu/ml) were kept on ice until injection. Hundred microliter of the bacterial suspension were injected intraperitoneally (ip) into C57/Bl6 mice. At ˜10 min after the bacterial injection, 0.5 mg of NLF20 or PBS alone was injected ip into the mice. Liver, spleen and kidney were harvested, placed on ice, homogenized, and colony-forming units (cfu) determined 12 h after infection. (B) In a similar infection model (2×10^8 cfu/ml of P. aeruginosa) intraperitoneal (ip) administration after 30 min was compared with subcutaneous injection (sc) after 1 h. 0.5 mg of NLF20 was used. […] Mice were injected intraperitoneally with P. aeruginosa as above followed by ip or sc administration of NLF20 (500 μg). Survival was followed for 7 days. […] (D) NLF20 effects on TNF-α and IL-10 were analyzed in blood. (E) Thrombocytes were analyzed in blood. Treatment with NLF20 (ip and sc) increased thrombocyte levels.
Animals were Housed Under Standard Conditions of Light and Temperature and Had free access to standard laboratory chow and water. P. aeruginosa 15159 bacteria were grown to logarithmic phase (OD620˜0.5), harvested, washed in PBS, diluted in the same buffer to 2×10^8 cfu/ml, and kept on ice until injection. Hundred microliter of the bacterial suspension was injected intraperitoneally (i.p.) into female bI6 mice. […] In order to study bacterial dissemination to target organs spleen, liver and kidney were harvested, placed on ice, homogenized, and colony-forming units determined. The P-value was determined using the Mann-Whitney U-test. Data from three independent experiments were pooled.
Animals were housed under standard conditions of light and temperature AND had free access to standard laboratory chow and water. P. aeruginosa 15159 bacteria were grown to logarithmic phase (OD620˜0.5), harvested, washed in PBS, diluted in the same buffer to 2×10^8 cfu/ml, and kept on ice until injection. Hundred microliter of the bacterial suspension was injected intraperitoneally (i.p.) into female bI6 mice. Immediately subsequent the bacterial injection, 0.5 mg NLF20 (in 10 mM Tris, pH 7.4) or buffer alone was injected i.p. into the mice. In order to study bacterial dissemination to target organs spleen, liver and kidney were harvested, placed on ice, homogenized, and colony-forming units determined. The P-value was determined using the Mann-Whitney U-test. Data from three independent experiments were pooled.

erythrocytes = type: cell-based, human
[2] = 0.5 mg sc 1 h after infection, particularly after 12 h
[3] = sc 1 h, or 1 and 7 h after inoculation

Sequence: NLFRKLTHRLFRRNFGYTLR [NLF20]
- MIC (S. pyogenes): 2.5 µM
- Activated partial thromboplastin time (aPTT) [1]: impaired the intrinsic pathway of coagulation
- Bacterial cfu in organs (P. aeruginosa 15159; 0.5 mg given subcutaneously 1 h after infection): reductions in cfu
- Bacterial numbers in spleen, liver and kidney (P. aeruginosa 15159; 0.5 mg ip shortly after bacterial injection, 12 h): significantly lower bacterial numbers in the spleen, liver, and kidney
- Thrombocytes in blood (P. aeruginosa 15159; ip and sc): thrombocytes were increased
- IL-10 in blood (P. aeruginosa 15159; ip and sc administration): showing an increase (both administrations)
- TNF-α in blood (P. aeruginosa 15159; ip treatment): a reduction was noted after ip treatment
- Mortality (P. aeruginosa 15159; one dose (500 μg) ip, followed 7 days): significantly reduce mortality
- Survival (P. aeruginosa 15159; one dose (500 μg) sc, followed 7 days): prolong survival
- Survival (P. aeruginosa 15159; subcutaneous injection after 1 h and then every 24 h for the three following days (FIG. 21)): significantly increases survival
- Hemolytic activity (erythrocytes): hemolytic activities at higher doses (30-60 μM)

Sequence: KYEITTIHNLFRKLTHRLFRRNFGYTLR [KYE28]
- MIC (S. pyogenes): 10 µM
- Activated partial thromboplastin time (aPTT) [1]: impair the intrinsic pathway of coagulation
- Bacterial levels in spleen, kidney and liver (P. aeruginosa 15159; 0.5 mg sc 1 h after infection, 4, 8 and 12 h): did not significantly reduce bacterial levels
- IL-10 in blood (P. aeruginosa 15159; 0.5 mg sc 1 h after infection, after 12 h): not significantly modulated
- IFN-γ in blood (P. aeruginosa 15159; [2]): concomitant reduction of cytokine levels
- IL-6 in blood (P. aeruginosa 15159; [2]): concomitant reduction of cytokine levels
- MCP-1 in blood (P. aeruginosa 15159; [2]): concomitant reduction of cytokine levels
- TNF-α in blood (P. aeruginosa 15159; [2]): concomitant reduction of cytokine levels
- Survival (P. aeruginosa 15159; one dose, sc 1 h after inoculation): did not increase survival
- Bacterial cfu in organs (P. aeruginosa 15159; one dose, sc 1 h after inoculation, 12 h): did not significantly reduce bacterial cfu
- Bacterial cfu in organs (P. aeruginosa 15159; repeated treatment, sc 1 and 7 h after inoculation, 12 h): moderate reduction of cfu numbers
- Cytokines in blood (P. aeruginosa 15159; [3]): dramatic and highly significant reduction of cytokines in blood
- Platelets (P. aeruginosa 15159; [3]): slight, but significant increase in platelets
- Survival / mortality (P. aeruginosa 15159; two-dose regime, sc 1 and 7 h after infection): significantly reduced mortality; also recorded: significant delay of septic symptoms as well as delayed mortality, and eventually also increase in survival
- Hemolytic activity (erythrocytes): significant hemolytic activities at higher doses (30-60 μM)

Sequence: KYEITTIHNLFRKLTHRLFRR [KYE21]
- Activated partial thromboplastin time (aPTT) [1]: only minor blocking of the aPTT
